This passage reports EC50 results from US8815909B2, “Diaminocyclohexane compounds and uses thereof” (Bristol-Myers Squibb Company, priority 2011, dated 2014).

The assay addresses T1, human Y4 receptor (Homo sapiens, UniProt P50391).
T1 construct: expressed in transfected cells
Nature of the assay: NPY4 cAMP HTRF Agonist Assay (inhibitory cAMP assay, Gi activation by Y4 agonism). The format is cell-based. To be noted: human Y4 receptor, cAMP; read-out: hY4 CAMP EC50. In a few lines:
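Y4 agonism read as lowered forskolin-stimulated cAMP (HTRF, 1 h detection at room temperature). Stable human Y4 CHO clone, 5000 cells/well, incubated 30 min at room temperature with compounds plus forskolin and IBMX in PBS.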

T1 sequence (P50391 whole entry): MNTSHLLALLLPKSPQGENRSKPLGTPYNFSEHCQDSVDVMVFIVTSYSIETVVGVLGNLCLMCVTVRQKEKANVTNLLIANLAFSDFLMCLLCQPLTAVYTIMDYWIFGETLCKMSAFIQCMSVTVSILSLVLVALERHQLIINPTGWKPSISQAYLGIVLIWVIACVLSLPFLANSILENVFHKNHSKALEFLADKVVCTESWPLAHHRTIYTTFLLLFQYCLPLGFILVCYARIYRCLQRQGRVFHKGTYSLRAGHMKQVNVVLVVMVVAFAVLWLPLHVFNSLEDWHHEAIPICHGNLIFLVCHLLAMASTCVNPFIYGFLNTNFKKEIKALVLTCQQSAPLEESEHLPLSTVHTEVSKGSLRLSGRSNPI

What is called EC50 is the midpoint of the concentration-response curve. Turning to `COC(=O)Nc1cccc(-c2cnc(N[C@@H]3CCCC[C@H]3N[C@H]3CCCN(c4cnc(C(F)(F)F)cn4)C3)o2)c1` [Example 427], the EC50 is 1 nM.

`CNC(=O)Nc1cccc(-c2cnc(N[C@@H]3CCCC[C@H]3N[C@H]3CCCN(c4cnc(C(F)(F)F)nc4)C3)o2)c1` [Example 428]: the 50% effective concentration (EC50) stood at 4 nM.

Take `CNC(=O)c1cccc(-c2cnc(N[C@@H]3CCCC[C@H]3N[C@H]3CCCN(c4cnc(C(F)(F)F)cn4)C3)o2)c1` [Example 429]: the EC50 was 2 nM.

On to `N#Cc1cnc(N2CCC[C@H](N[C@@H]3CCCC[C@H]3Nc3cc(-c4cccc(C(N)=O)c4)ccn3)C2)nc1` [Example 430], for which the EC50 came out at 142 nM.

Take `N#Cc1ncc(N2CCC[C@H](N[C@@H]3CCCC[C@H]3Nc3cc(-c4cccc(C(N)=O)c4)ccn3)C2)cn1` [Example 431]: the concentration for a half-maximal effect (EC50) is 171 nM.

`C[C@]1(N[C@@H]2CCCC[C@H]2Nc2ncc(-c3cccc(C(N)=O)c3)o2)CCCN(c2ncc(C#N)cn2)C1` [Example 432]: the EC50 was determined as 29 nM.

For `N#Cc1cnc(N2C[C@@H]3C[C@H](N[C@@H]4CCCC[C@H]4Nc4ncc(-c5cccc(C(N)=O)c5)o4)[C@H]2C3)nc1` [Example 433], the EC50 came out at 144 nM.

In the case of `N#Cc1ncc(N2C[C@@H]3C[C@H](N[C@@H]4CCCC[C@H]4Nc4ncc(-c5cccc(C(N)=O)c5)o4)[C@H]2C3)cn1` [Example 434], the EC50 was determined as 129 nM.

On to `C[C@]1(N[C@@H]2CCCC[C@H]2Nc2cc(-c3cccc(C(N)=O)c3)ccn2)CCCN(c2ncc(C#N)cn2)C1` [Example 435], for which the EC50 came to 400 nM.

`N#Cc1ncc(N2CCC[C@H](N[C@@H]3CCCC[C@H]3Nc3cc(-c4cc(F)c(F)cc4F)ccn3)C2)cn1` [Example 436]: the EC50 was found to be 756 nM.

Turning to `N#Cc1cnc(N2CCCC(N[C@@H]3CCCC[C@H]3Nc3ncc(-c4cccc(C(N)=O)c4)o3)C2)nc1` (stereo partly shown) [Example 437], the EC50 was determined as 35 nM.

With `N#Cc1ncc(N2CCC[C@H](N[C@@H]3CCCC[C@H]3Nc3ncc(-c4cccc(C(N)=O)c4)o3)C2)cn1` [Example 438], the half-maximal effective concentration (EC50) was 5 nM.

On to `N#Cc1cc(N2C[C@@H]3C[C@H](N[C@@H]4CCCC[C@H]4Nc4ncc(-c5cccc(C(N)=O)c5)o4)[C@H]2C3)ncn1` [Example 439], for which the EC50 was 578 nM.

On to `N#Cc1cnc(N2C[C@@H]3C[C@H](N[C@@H]4CCCC[C@H]4Nc4ncc(-c5ccc(OC(F)(F)F)cc5)o4)[C@H]2C3)nc1` [Example 440], for which the EC50 amounted to 15 nM.

For the molecule `N#Cc1cnc(N2C[C@@H]3C[C@H](N[C@@H]4CCCC[C@H]4Nc4cc(Br)ccn4)[C@H]2C3)nc1` [Example 441], the EC50 was 803 nM.

For `N#Cc1cnc(N2C[C@@H]3C[C@H](N[C@@H]4CCCC[C@H]4Nc4cc(-c5cccc(C(N)=O)c5)ccn4)[C@H]2C3)nc1` [Example 442], the EC50 was found to be 228 nM.

`N#Cc1ccc(N2C[C@@H]3C[C@H](N[C@@H]4CCCC[C@H]4Nc4ncc(-c5ccc(OC(F)(F)F)cc5)o4)[C@H]2C3)nn1` [Example 443]: the EC50 was determined as 482 nM.

Turning to `N#Cc1cc(N2C[C@@H]3C[C@H](N[C@@H]4CCCC[C@H]4Nc4ncc(-c5ccc(OC(F)(F)F)cc5)o4)[C@H]2C3)ncn1` [Example 444], the 50% effective concentration (EC50) was 378 nM.

Regarding `C[C@]1(N[C@@H]2CCCC[C@H]2Nc2ncc(-c3cccc(C(N)=O)c3)o2)CCCN(c2ccc(C(=N)NC(=O)C3CC3)nc2)C1` [Example 445], the EC50 came to 4 nM.

On to `C[C@]1(N[C@@H]2CCCC[C@H]2Nc2ncc(-c3cccc(C(N)=O)c3)o2)CCCN(c2ccc(C(=O)NC(=O)C3CC3)nc2)C1` [Example 446], for which the EC50 amounted to 6 nM.

For the molecule `CCc1nc(-c2ccc(N3CCC[C@H](N[C@@H]4CCCC[C@H]4Nc4cc(-c5cccc(C(N)=O)c5)ccn4)C3)nc2)no1` [Example 447], the EC50 came to 8 nM.

`CCc1nc(-c2ccc(N3CCC[C@H](N[C@@H]4CCCC[C@H]4Nc4ncc(-c5cccc(C(N)=O)c5)o4)C3)nc2)no1` [Example 448]: the EC50 turned out to be 2 nM.

Turning to `C[C@]1(N[C@@H]2CCCC[C@H]2Nc2ncc(-c3cccc(C(N)=O)c3)o2)CCCN(c2ccc(-c3noc(C4CC4)n3)nc2)C1` [Example 449], the EC50 came out at 5 nM.

On to `C[C@]1(N[C@@H]2CCCC[C@H]2Nc2cc(-c3cccc(C(N)=O)c3)ccn2)CCCN(c2ccc(-c3noc(C4CC4)n3)nc2)C1` [Example 450], for which the EC50 came out at 10 nM.

With `NC(=O)c1cccc(-c2ccnc(N[C@@H]3CCCC[C@H]3N[C@H]3CCCN(c4ccc(-c5noc(C6CC6)n5)cn4)C3)c2)c1` [Example 451], the EC50 amounted to 4 nM.

As to `NC(=O)c1cccc(-c2cnc(N[C@@H]3CCCC[C@H]3N[C@H]3CCCN(c4ccc(-c5noc(C6CC6)n5)cn4)C3)o2)c1` [Example 452], the EC50 amounted to 3 nM.

As to `NC(=O)c1cccc(-c2ccnc(N[C@@H]3CCCC[C@H]3N[C@H]3CCCN(c4ccc(F)cc4)C3)c2)c1` [Example 453], the EC50 turned out to be 41 nM.

With `NC(=O)c1cccc(-c2cnc(N[C@@H]3CCCC[C@H]3N[C@H]3CCCN(c4ccc(F)c(F)c4)C3)o2)c1` [Example 454], the EC50 amounted to 3 nM.

In the case of `COC(=O)Nc1cccc(-c2ccnc(N[C@@H]3CCCC[C@H]3N[C@H]3CCCN(c4ccc(-c5ncn(C)n5)cc4)C3)c2)c1` [Example 455], the EC50 turned out to be 2 nM.

Consider `Cn1cnc(-c2ccc(N3CCC[C@H](N[C@@H]4CCCC[C@H]4Nc4cc(-c5cccc(O)c5)ccn4)C3)cc2)n1` [Example 456], for which the EC50 is 28 nM.

For the molecule `Cn1cnc(-c2ccc(N3CCC[C@H](N[C@@H]4CCCC[C@H]4Nc4cc(-c5ccc(F)c(F)c5)ccn4)C3)cc2)n1` [Example 457], the EC50 was 26 nM.

As to `COC(=O)Nc1cccc(-c2ccnc(N[C@@H]3CCCC[C@H]3N[C@H]3CCCN(c4ccc(-c5noc(C6CC6)n5)cc4)C3)c2)c1` [Example 458], the EC50 is 0.2 nM.

With `NC(=O)c1cccc(-c2cnc(N[C@@H]3CCCC[C@H]3N[C@H]3CCCN(c4ccc(OC(F)(F)F)cc4)C3)o2)c1` [Example 459], the EC50 is 1 nM.

Regarding `Cn1nnc(-c2ccc(N3C[C@@H]4C[C@H](N[C@@H]5CCCC[C@H]5Nc5cc(-c6cccc(C(N)=O)c6)ccn5)[C@H]3C4)cc2)n1` [Example 460], the EC50 was 4 nM.

Take `NC(=O)c1cccc(-c2cnc(N[C@@H]3CCCC[C@H]3N[C@H]3CCCN(c4ccc(F)cc4)C3)o2)c1` [Example 461]: the EC50 was determined as 55 nM.

For the molecule `NC(=O)c1cccc(-c2ccnc(N[C@@H]3CCCC[C@H]3N[C@H]3CCCN(c4ccc(OC(F)(F)F)cc4)C3)c2)c1` [Example 462], the EC50 turned out to be 8 nM.

In the case of `Cc1nc(-c2ncc(N3CCC[C@H](N[C@@H]4CCCC[C@H]4Nc4cc(-c5cccc(C(N)=O)c5)ccn4)C3)cn2)no1` [Example 463], the EC50 turned out to be 39 nM.

As for `CNC(=O)c1cccc(-c2ccnc(N[C@@H]3CCCC[C@H]3N[C@H]3CCCN(c4cnc(-c5noc(C)n5)nc4)C3)c2)c1` [Example 464], the EC50 was determined as 42 nM.

Take `COC(=O)Nc1cccc(-c2ccnc(N[C@@H]3CCCC[C@H]3N[C@H]3CCCN(c4cnc(-c5noc(C)n5)nc4)C3)c2)c1` [Example 465]: the EC50 was 0.02 nM.

Consider `COC(=O)Nc1cccc(-c2cnc(N[C@@H]3CCCC[C@H]3N[C@H]3CCCN(c4cnc(-c5noc(C)n5)nc4)C3)o2)c1` [Example 466], for which the EC50 came to 1 nM.

Consider `Cc1nc(-c2ncc(N3CCC[C@H](N[C@@H]4CCCC[C@H]4Nc4cc(-c5ccc(F)c(F)c5)ccn4)C3)cn2)no1` [Example 467], for which the EC50 is 2 nM.

Regarding `Cc1nc(-c2ncc(N3CCC[C@H](N[C@@H]4CCCC[C@H]4Nc4cc(-c5ccc(F)cc5F)ccn4)C3)cn2)no1` [Example 468], the EC50 worked out at 9 nM.

Turning to `Cc1nc(-c2ncc(N3CCC[C@H](N[C@@H]4CCCC[C@H]4Nc4cc(C#N)ccn4)C3)cn2)no1` [Example 469], the EC50 came out at 96 nM.

On to `NC(=O)c1cccc(-c2cnc(N[C@@H]3CCCC[C@H]3N[C@H]3C[C@@H]4C[C@H]3N(c3cnc(C(F)(F)F)cn3)C4)o2)c1` [Example 470], for which the EC50 is 162 nM.

For `NC(=O)c1cccc(-c2ccnc(N[C@@H]3CCCC[C@H]3N[C@H]3C[C@@H]4C[C@H]3N(c3cnc(C(F)(F)F)cn3)C4)c2)c1` [Example 471], the EC50 stood at 329 nM.

For the molecule `C[C@]1(N[C@@H]2CCCC[C@H]2Nc2ncc(-c3cccc(C(N)=O)c3)o2)CCCN(c2cnc(C(F)(F)F)cn2)C1` [Example 472], the EC50 is 9 nM.

For `NC(=O)c1cccc(-c2ccnc(N[C@@H]3CCCC[C@H]3N[C@H]3CCCN(c4cnc(C(F)(F)F)cn4)C3)c2)c1` [Example 473], the 50% effective concentration (EC50) stood at 79 nM.

For `C[C@]1(N[C@@H]2CCCC[C@H]2Nc2cc(-c3cccc(C(N)=O)c3)ccn2)CCCN(c2cnc(C(F)(F)F)cn2)C1` [Example 474], the EC50 amounted to 142 nM.

As to `NC(=O)c1cccc(-c2cnc(N[C@@H]3CCCC[C@H]3N[C@H]3CCCN(c4cnc(C(F)(F)F)cn4)C3)o2)c1` [Example 475], the EC50 amounted to 8 nM.

For `C[C@]1(N[C@@H]2CCCC[C@H]2Nc2ncc(-c3cccc(C(N)=O)c3)o2)CCCN(c2cnc(C#N)cn2)C1` [Example 476], the EC50 came out at 49 nM.

For the molecule `N#Cc1cnc(N2CCC[C@H](N[C@@H]3CCCC[C@H]3Nc3cc(-c4cccc(C(N)=O)c4)ccn3)C2)cn1` [Example 477], the concentration for a half-maximal effect (EC50) was 775 nM.

As for `N#Cc1cnc(N2CCC[C@H](N[C@@H]3CCCC[C@H]3Nc3ncc(-c4cccc(C(N)=O)c4)o3)C2)cn1` [Example 478], the EC50 came to 25 nM.

Turning to `N#Cc1ccc(N2CCCC(N[C@@H]3CCCC[C@H]3Nc3ncc(-c4cccc(C(N)=O)c4)o3)C2)nn1` (stereo partly shown) [Example 479], the EC50 stood at 333 nM.

For `NC(=O)c1cccc(-c2cnc(N[C@@H]3CCCC[C@H]3N[C@H]3CCCN(c4ccc5ncnn5c4)C3)o2)c1` [Example 480], the 50% effective concentration (EC50) came out at 17 nM.

Turning to `NC(=O)c1cccc(-c2ccnc(N[C@@H]3CCCC[C@H]3N[C@H]3CCCN(c4ccc5ncnn5c4)C3)c2)c1` [Example 481], the EC50 worked out at 34 nM.
